In brackets after ≈: the same amount, converted by molar mass. Starred links: 1 amine or outer side, 2 acyl side, 3 side chain; linkers in the order of their positions; H or OH if unused. Positions of bridges follow the written chain, without caps; N, C: chain ends. Residues, ends and D or L forms follow the SMILES beside them. Biphenyl(4,4'-CH2)2 = c1cc(-c2ccc(C[*:2])cc2)ccc1C[*:1]; mXylylene = c1cc(C[*:1])cc(C[*:2])c1; pXylylene = c1cc(C[*:2])ccc1C[*:1]; X1 = C(=CC[*:2])C[*:1]
What was measured:
[1] = 90 minute cytotoxicity assay (LDH release), renal toxicity; assay type: cell-based
Text: (§1) In some embodiments, a peptide provided herein has renal toxicity that is at least 10% (e.g., at least 15%, at least 20%, at least 25%, at least 30%, at least 35%, at least 40%, at least 45%, at least 50%, at least 55%, at least 60%, at least 65%, at least 65%, at least 70%, at least 75%, at least 80%, at least 85%, at least 90%, at least 95%, at least 99%) lower than the renal toxicity of the reference. The renal toxicity of a peptide can be measured in vitro using a renal proximal tubule epithelial cell (RPTEC) renal toxicity assay.
(§2) Cell culture: RPTEC were maintained in MEM media supplemented with growth factors. HEPG2 cell line was maintained in Eagle's Minimum Essential Medium (EMEM) supplemented with fetal bovine serum to a final concentration of 10%.
90 minute cytotoxicity assay: Cells were plated in a 96-well format, and after overnight incubation, media was replaced with fresh media. Serial dilutions of StAMPs from a 5 mg/mL water stock, or vehicle, were added to the cells in a final volume of 100 μl. After incubating at 37° C. for 90 min, 50 μl of cell culture media was transferred to a clear 96-well plate, incubated with 50 μl of lactate dehydrogenase (LDH) assay reagent for 10 min, and absorbance measured at 490 nm on a microplate reader.
(§3) Renal toxicity was measured after 90 minutes of incubation, while liver toxicity was measured after 48 hours of incubation with StAMPs. N/A=not tested.

[2] = 48 hours cytotoxicity assay (CellTiter-Glo), liver toxicity; assay type: cell-based, human
Text: as §1, with “hepatic” for “renal”, “human liver cells (e.g., HepG2)” for “renal proximal tubule epithelial cell (RPTEC) renal”
as §2
48 hours cytotoxicity assay: Cells were plated in a 96-well format, and after 4 hour incubation to allow attachment, serial dilutions of StAMPs from a 5 mg/mL water stock, or vehicle, were then added to the cells in a final volume of 100 μl. After incubating at 37° C. for 48 hours, 100 μl of CellTiter-Glo® reagent was added to the cells, and the plates were incubated 10 minutes at room temperature. Luminescence was then measured on a microplate reader.
as §3

Compound: CC[C@H](C)[C@H](NC(=O)CN)C(=O)N[C@@H](Cc1ccccc1)C(=O)N[C@H]1CSCc2ccc(cc2)CSC[C@@H](C(=O)N[C@@H](CCCCN)C(=O)N[C@@H](CCCCN)C(=O)N[C@H](C(=O)N[C@@H](CCCCN)C(=O)N[C@@H](CC(N)=O)C(=O)N[C@@H](CC(C)C)C(=O)N[C@@H](CC(C)C)C(=O)N[C@H](C(=O)N[C@@H](CO)C(=O)NCC(=O)N[C@@H](CC(C)C)C(=O)N[C@@H](CCCCN)C(=O)NCC(N)=O)[C@@H](C)CC)[C@@H](C)CC)NC(=O)[C@H](C)NC(=O)[C@H](CC(C)C)NC(=O)[C@H](CCCCN)NC1=O [compound 6] (H-GIFCKLACKKIKNLLISGLKG-NH2; linker 4-8 via pXylylene; N-terminus assumed)
- IC50 [1]: 15 µg/mL (≈ 6.39 µM)
- IC50 [2]: 25 µg/mL (≈ 10.6 µM)

Compound: CC[C@H](C)[C@H](NC(=O)CN)C(=O)N[C@@H](Cc1ccccc1)C(=O)N[C@@H](CO)C(=O)N[C@@H](CCCCN)C(=O)N[C@@H](CC(C)C)C(=O)N[C@H]1CSCc2cccc(c2)CSC[C@@H](C(=O)N[C@@H](CCCCN)C(=O)N[C@@H](CC(N)=O)C(=O)N[C@@H](CC(C)C)C(=O)N[C@@H](CC(C)C)C(=O)N[C@H](C(=O)N[C@@H](CO)C(=O)NCC(=O)N[C@@H](CC(C)C)C(=O)N[C@@H](CCCCN)C(=O)NCC(=O)NCC(=O)NCC(=O)N[C@@H](CCCCN)C(=O)O)[C@@H](C)CC)NC(=O)[C@H](CCCCN)NC(=O)[C@H](CCCCN)NC(=O)CNC1=O [compound 94] (H-GIFSKLCGKKCKNLLISGLKGGGK-OH; linker 7-11 via mXylylene; N-terminus assumed)
- IC50 [1]: 168 µg/mL (≈ 65.8 µM)
- IC50 [2]: > 200 µg/mL

Compound: CC[C@H](C)[C@H](NC(=O)CN)C(=O)N[C@@H](Cc1ccccc1)C(=O)N[C@@H](CO)C(=O)N[C@@H](CCCCN)C(=O)N[C@@H](CC(C)C)C(=O)N[C@H]1CSCc2cccc(c2)CSC[C@@H](C(=O)N[C@@H](CCCCN)C(=O)N[C@@H](CC(N)=O)C(=O)N[C@@H](CC(C)C)C(=O)N[C@@H](CC(C)C)C(=O)N[C@H](C(=O)N[C@@H](CO)C(=O)N[C@@H](C)C(=O)N[C@@H](CC(C)C)C(=O)N[C@@H](CCCCN)C(=O)NCC(=O)O)[C@@H](C)CC)NC(=O)[C@H](CCCCN)NC(=O)[C@H](CCCCN)NC(=O)[C@H](C)NC1=O [compound 99] (H-GIFSKLCAKKCKNLLISALKG-OH; linker 7-11 via mXylylene; N-terminus assumed)
- IC50 [1]: 45 µg/mL (≈ 19.2 µM)
- IC50 [2]: 59 µg/mL (≈ 25.2 µM)

Compound: CC[C@H](C)[C@H](NC(=O)CN)C(=O)N[C@@H](Cc1ccccc1)C(=O)N[C@@H](CO)C(=O)N[C@@H](CCCCN)C(=O)N[C@@H](CC(C)C)C(=O)N[C@H]1CSCc2ccc(cc2)-c2ccc(cc2)CSC[C@@H](C(=O)N[C@@H](CC(C)C)C(=O)N[C@H](C(=O)N[C@@H](CO)C(=O)NCC(=O)N[C@@H](CC(C)C)C(=O)N[C@@H](CCCCN)C(=O)NCC(N)=O)[C@@H](C)CC)NC(=O)[C@H](CC(N)=O)NC(=O)[C@H](CCCCN)NC(=O)[C@H]([C@@H](C)CC)NC(=O)[C@H](CCCCN)NC(=O)[C@H](CCCCN)NC(=O)CNC1=O [compound 88] (H-GIFSKLCGKKIKNCLISGLKG-NH2; linker 7-14 via Biphenyl(4,4'-CH2)2; N-terminus assumed)
- IC50 [1]: 13 µg/mL (≈ 5.45 µM)
- IC50 [2]: 15 µg/mL (≈ 6.29 µM)

Compound: CC[C@H](C)[C@H](NC(=O)CN)C(=O)N[C@@H](Cc1ccccc1)C(=O)N[C@@H](CO)C(=O)N[C@@H](CCCCN)C(=O)N[C@@H](CC(C)C)C(=O)N[C@@H](C)C(=O)NCC(=O)N[C@@H](CCCCN)C(=O)N[C@@H](CCCCN)C(=O)N[C@H](C(=O)N[C@@H](CCCCN)C(=O)N[C@@H](CC(N)=O)C(=O)N[C@@H](CC(C)C)C(=O)N[C@@H](CC(C)C)C(=O)N[C@H](C(=O)N[C@H]1CSCC=CCSC[C@@H](C(N)=O)NC(=O)[C@H](CCCCN)NC(=O)[C@H](CC(C)C)NC(=O)CNC1=O)[C@@H](C)CC)[C@@H](C)CC [compound 35] (H-GIFSKLAGKKIKNLLICGLKC-NH2; linker 17-21 via X1; N-terminus assumed)
- IC50 [1]: ~200 µg/mL (≈ 87 µM)
- IC50 [2]: ~200 µg/mL (≈ 87 µM)

Compound: CC[C@H](C)[C@H](NC(=O)CN)C(=O)N[C@@H](Cc1ccccc1)C(=O)N[C@@H](CO)C(=O)N[C@@H](CCCCN)C(=O)N[C@@H](CC(C)C)C(=O)N[C@@H](C)C(=O)NCC(=O)N[C@H]1CSCC=CCSC[C@@H](C(=O)N[C@@H](CC(C)C)C(=O)N[C@@H](CC(C)C)C(=O)N[C@H](C(=O)N[C@@H](CO)C(=O)NCC(=O)N[C@@H](CC(C)C)C(=O)N[C@@H](CCCCN)C(=O)NCC(N)=O)[C@@H](C)CC)NC(=O)[C@H](CCCCN)NC(=O)[C@H]([C@@H](C)CC)NC(=O)[C@H](CCCCN)NC1=O [compound 43] (H-GIFSKLAGCKIKCLLISGLKG-NH2; linker 9-13 via X1; N-terminus assumed)
- IC50 [1]: > 200 µg/mL
- IC50 [2]: > 200 µg/mL

Compound: CC[C@H](C)[C@H](NC(=O)CN)C(=O)N[C@@H](Cc1ccccc1)C(=O)N[C@@H](CO)C(=O)N[C@@H](CCCCN)C(=O)N[C@@H](CC(C)C)C(=O)N[C@H]1CSCc2cccc(c2)CSC[C@@H](C(=O)N[C@@H](CCCCN)C(=O)N[C@@H](CC(N)=O)C(=O)N[C@@H](CC(C)C)C(=O)N[C@@H](CC(C)C)C(=O)N[C@H](C(=O)N[C@@H](CO)C(=O)N[C@@H](C)C(=O)N[C@@H](CC(C)C)C(=O)N[C@@H](CCCCN)C(=O)NCC(=O)O)[C@@H](C)CC)NC(=O)[C@H](CCCCN)NC(=O)[C@H](CCCCN)NC(=O)CNC1=O [compound 98] (H-GIFSKLCGKKCKNLLISALKG-OH; linker 7-11 via mXylylene; N-terminus assumed)
- IC50 [1]: 28 µg/mL (≈ 12 µM)
- IC50 [2]: 50 µg/mL (≈ 21.5 µM)

Compound: CC[C@H](C)[C@H](NC(=O)[C@H](CC(C)C)NC(=O)[C@H](CC(C)C)NC(=O)[C@H](CC(N)=O)NC(=O)[C@H](CCCCN)NC(=O)[C@@H](NC(=O)[C@H](CCCCN)NC(=O)[C@H](CCCCN)NC(=O)CNC(=O)[C@H](C)NC(=O)[C@H](CC(C)C)NC(=O)[C@@H]1CSCc2cccc(c2)CSC[C@H](N)C(=O)N[C@@H]([C@@H](C)CC)C(=O)N[C@@H](Cc2ccccc2)C(=O)N[C@@H](CO)C(=O)N1)[C@@H](C)CC)C(=O)N[C@@H](CO)C(=O)NCC(=O)N[C@@H](CC(C)C)C(=O)N[C@@H](CCCCN)C(=O)NCC(N)=O [compound 36] (H-CIFSCLAGKKIKNLLISGLKG-NH2; linker 1-5 via mXylylene; N-terminus assumed)
- IC50 [1]: ~200 µg/mL (≈ 86.7 µM)
- IC50 [2]: 75 µg/mL (≈ 32.5 µM)

Compound: CC[C@H](C)[C@H](NC(=O)CN)C(=O)N[C@@H](Cc1ccccc1)C(=O)N[C@@H](CO)C(=O)N[C@@H](CCCCN)C(=O)N[C@H]1CSCC=CCSC[C@@H](C(=O)N[C@H](C(=O)N[C@@H](CCCCN)C(=O)N[C@@H](CC(N)=O)C(=O)N[C@@H](CC(C)C)C(=O)N[C@@H](CC(C)C)C(=O)N[C@H](C(=O)N[C@@H](CO)C(=O)NCC(=O)N[C@@H](CC(C)C)C(=O)N[C@@H](CCCCN)C(=O)NCC(N)=O)[C@@H](C)CC)[C@@H](C)CC)NC(=O)[C@H](CCCCN)NC(=O)CNC(=O)[C@H](C)NC1=O [compound 9] (H-GIFSKCAGKCIKNLLISGLKG-NH2; linker 6-10 via X1; N-terminus assumed)
- IC50 [1]: > 200 µg/mL
- IC50 [2]: 39 µg/mL (≈ 17.7 µM)

Compound: CC[C@H](C)[C@H](NC(=O)CN)C(=O)N[C@H]1CSCc2ccc(cc2)CSC[C@@H](C(=O)NCC(=O)N[C@@H](CCCCN)C(=O)N[C@@H](CCCCN)C(=O)N[C@H](C(=O)N[C@@H](CCCCN)C(=O)N[C@@H](CC(N)=O)C(=O)N[C@@H](CC(C)C)C(=O)N[C@@H](CC(C)C)C(=O)N[C@H](C(=O)N[C@@H](CO)C(=O)NCC(=O)N[C@@H](CC(C)C)C(=O)N[C@@H](CCCCN)C(=O)NCC(N)=O)[C@@H](C)CC)[C@@H](C)CC)NC(=O)[C@H](CC(C)C)NC(=O)[C@H](CCCCN)NC(=O)[C@H](CO)NC1=O [compound 40] (H-GICSKLCGKKIKNLLISGLKG-NH2; linker 3-7 via pXylylene; N-terminus assumed)
- IC50 [1]: 117 µg/mL (≈ 51.4 µM)
- IC50 [2]: 124 µg/mL (≈ 54.5 µM)

Compound: CC[C@H](C)[C@H](NC(=O)CN)C(=O)N[C@H]1CSCc2ccc(cc2)-c2ccc(cc2)CSC[C@@H](C(=O)N[C@H](C(=O)N[C@@H](CCCCN)C(=O)N[C@@H](CC(N)=O)C(=O)N[C@@H](CC(C)C)C(=O)N[C@@H](CC(C)C)C(=O)N[C@H](C(=O)N[C@@H](CO)C(=O)NCC(=O)N[C@@H](CC(C)C)C(=O)N[C@@H](CCCCN)C(=O)NCC(N)=O)[C@@H](C)CC)[C@@H](C)CC)NC(=O)[C@H](CCCCN)NC(=O)CNC(=O)[C@H](C)NC(=O)[C@H](CC(C)C)NC(=O)[C@H](CCCCN)NC(=O)[C@H](CO)NC1=O [compound 56] (H-GICSKLAGKCIKNLLISGLKG-NH2; linker 3-10 via Biphenyl(4,4'-CH2)2; N-terminus assumed)
- IC50 [1]: 17 µg/mL (≈ 7.41 µM)
- IC50 [2]: 34 µg/mL (≈ 14.8 µM)
